US20140221301A1, “COMBINATION TREATMENT FOR CANCER” (priority 2011, published 2014)

Legend:
TEX cells = assay: ROS generation (DCF-DA, DHE) in TEX cells; assay type: cell-based, human; conditions: time-points up to 24 hours
Method: FIG. 4. […] (A) Cells from TEX, OCI-AML2 and two primary AML patients were treated with increasing concentrations (2.5 μM and 5 μM) of tigecycline for 36 and 48 hours of tigecycline. Total proteins were extracted and analyzed by western blotting for Cox-1, Cox-2, Cox-4, grp78, XIAP, actin and tubulin. (B) TEX and AML patient cells were treated with increasing concentrations (2.5 μM and 5 μM) of tigecycline. Cox-1, Cox-2, and Cox-4 mRNA expression relative 18S was determined by quantitative RT-PCR. Data is shown as mean±SD. (C) TEX cells were treated with increasing concentrations of tigecycline and chloramphenicol (CAP) for 72 hours. Complex I, II and IV enzyme activity relative to citrate synthase activity was determined as described in materials and methods. (D) Cells from TEX, primary AML patients, and normal donors were treated with increasing concentrations of tigecycline. Mitochondrial membrane potential (ΔΨ) was determined by staining cells with JC-1 dye, and flow cytometry analysis (Red/Green ratio). Reactive oxygen species generation (ROS) was determined by staining with h2-DCFDA and Dihydroethidium (DHE).
A byproduct of the mitochondrial enzyme activities of the electron transport chain is the generation of reactive oxygen species (ROS). […] Therefore, the role of tigecycline on ROS generation in leukemia cells by analyzing hydrogen peroxide ions (H2O2) using a dichlorofluorescein dye (DCF-DA), and superoxide anions using dihydroethidium (DHE) was examined.

[1] = system: acute myeloid leukemia (AML); conditions: 13 patients treated; cited from earlier work

Row | Compound | ROS generation (TEX cells) | complete remission [1] | partial remissions [1]
1 | C=C(C)[C@H]1Cc2c(ccc3c2O[C@@H]2COc4cc(OC)c(OC)cc4[C@@H]2C3=O)O1 [rotenone] | rapid increases |  | 
2 | CC[C@H]1/C=C/C=C/C[C@@H](C)[C@H](O)[C@@](C)(O)C(=O)[C@@H](C)[C@H](O)[C@@H](C)C(=O)[C@@H](C)[C@H](O)[C@@H](C)/C=C/C(=O)O[C@@H]2[C@H](C)[C@H](CC1)O[C@]1(CC[C@H](C)[C@H](C[C@@H](C)O)O1)[C@H]2C [oligomycin] | rapid increases |  | 
3 | antimycin | rapid increases |  | 
4 | NC(=O)c1ncn([C@@H]2O[C@H](CO)[C@@H](O)[C@H]2O)n1 [ribavirin] |  | 1 | 2
